Measurements taken from PubChem BioAssay (NCI).
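Briefly, cells in 96-well plates were exposed to five compound concentrations for 48 h, and endpoints were estimated by linear interpolation. TGI is the concentration that stops growth completely.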 Where a SMILES comes first, the peptide text is derived from it. The star is where a group is joined. Boc = CC(C)(C)OC(=O)*; OBn = c1ccc(CO*)cc1

Experiments:
Experiment in all cases: growth of human tumour cells (NCI), 48 h
786-0 renal = test system: 786-0 renal
SF-268 CNS = test system: SF-268 CNS
HT29 colon = test system: HT29 colon
RPMI-8226 leukemia = test system: RPMI-8226 leukemia
SR leukemia = test system: SR leukemia
K-562 leukemia = test system: K-562 leukemia
RXF 393 renal = test system: RXF 393 renal
UO-31 renal = test system: UO-31 renal
MCF7 breast = test system: MCF7 breast
MDA-MB-231 breast = test system: MDA-MB-231 breast

| SMILES | TGI (786-0 renal) [µM] | TGI (SF-268 CNS) [µM] | TGI (HT29 colon) [µM] | TGI (RPMI-8226 leukemia) [µM] | TGI (SR leukemia) [µM] | TGI (K-562 leukemia) [µM] | TGI (RXF 393 renal) [µM] | TGI (UO-31 renal) [µM] | TGI (MCF7 breast) [µM] | TGI (MDA-MB-231 breast) [µM] |
| --- | --- | --- | --- | --- | --- | --- | --- | --- | --- | --- |
| CC(C)CNC(=O)Cn1c(-c2ccccc2)cc2ccccc21 | > 100 | > 100 | > 100 | > 100 | > 100 | > 100 | > 100 | > 100 | > 100 |  |
| C=CC[C@@]1(C(=O)OC)[C@H](Sc2ccccc2)C1(C)C | > 100 | > 100 | > 100 | 26.4 |  |  |  | > 100 | 74.1 | > 100 |
| COc1cc(C2SCC(=O)N2c2ccc(Oc3ccc(Cl)cc3)c(Cl)c2)cc(OC)c1OC (configuration not stated) | 33.9 | 31 | 33.7 | > 100 | > 100 | > 100 |  | 91.3 | > 100 | 40.3 |
| NCCCCNCCCNC(=O)c1nc(-c2csc(CCN)n2)sc1Cl |  | > 100 | > 100 | > 100 | > 100 | > 100 | > 100 | > 100 |  |  |
| Cc1ccc(-c2n[nH]c(=O)[nH]2)cc1[N+](=O)[O-] | > 100 | > 100 | > 100 | > 100 | > 100 | > 100 | > 100 | > 100 | > 100 |  |
| Cc1ccc(N=Nc2c(C)c(C#N)c(=S)n(C3OC(CO)C(O)C(O)C3O)c2-c2ccccc2)cc1 (configuration not stated) | 49.8 | 68 | 89.2 | > 100 |  | 83.3 | 50.6 | 86.9 | 34.7 | > 100 |
| CC(=O)OCC=C(CCl)CCC(Br)C(C)(C)Br (mixture of isomers) | > 10 | > 10 | > 10 | > 10 |  | > 10 | > 10 | > 10 | > 10 | > 10 |
| CCO/C(O)=C(/C(=N)N1CCCC1)C(=O)Nc1cccc(C(F)(F)F)c1 | > 100 | > 100 | > 100 | > 100 |  | > 100 | 53.6 |  | > 100 | > 100 |
| COc1cc2c(cc1OC)-c1c3c(cc4c1[C@@H](C2)N(C)CC4)OCO3 |  | 38.2 | 28.8 | 22.8 |  | 33.9 | 19.2 | 49.3 | 27.3 |  |
| O=C(NCCCNCCNC(=O)c1cc(-c2ccccc2)nc2ccccc12)c1cc(-c2ccccc2)nc2ccccc12 | 3.24 |  | 2.91 |  | 8.73 | 4.45 |  | 3.89 | 3.15 | 3.52 |
| C/C(O)=C/c1nc2ccc([N+](=O)[O-])cc2nc1/C=C(/C)O | > 100 | > 100 | > 100 | 65.1 | 47 | > 100 | > 100 | > 100 |  | > 100 |
| C[n+]1c2ccccc2c(C(=O)Nc2ccc(S(=O)(=O)N=C(N)N)cc2)c2ccccc21 | > 100 | > 100 | > 100 | > 100 |  | > 100 |  | > 100 | > 100 | 76.5 |
| O=C(CNc1ccc(Cl)cc1Cl)NC1C=Cc2ccc(S(=O)(=O)Nc3ccc(Cl)cc3Cl)cc2C1=O (configuration not stated) | > 100 | > 100 | > 100 | > 100 | > 100 | > 100 |  | > 100 | > 100 | > 100 |
| Nc1cc(N2CCCC2)nc(=O)n1Cc1ccccc1 | > 100 | > 100 | > 100 | > 100 | > 100 | > 100 |  |  | > 100 | > 100 |
| CSC1=NS(=O)(=O)c2cc(C(=O)NN(C)C(=O)c3cc4c(cc3Cl)SC(SC)=NS4(=O)=O)c(Cl)cc2S1 | > 10 | > 10 | > 10 | > 10 | > 10 | > 10 | > 10 | > 10 | > 10 |  |
| O=C1C(Br)=C(c2ccccc2)S(=O)c2ccccc21 (configuration not stated) | 7.62 | 36.5 | 63.5 |  |  | 11.8 | 24.8 | 27.2 | 10.4 | 29.2 |
| COc1ccc(OC)c2c1C1CCC(=O)N1CN2C(C)=O (configuration not stated) | > 100 | > 100 | > 100 | > 100 |  | > 100 | > 100 | > 100 | > 100 | > 100 |
| OC12CC/C(=N/OCc3ccccc3)CC1c1ccccc12 (configuration not stated) | > 100 | > 100 | > 100 | > 100 |  | > 100 | > 100 | > 100 |  |  |

| SMILES | TGI (786-0 renal) [µM] | TGI (SF-268 CNS) [µM] | TGI (HT29 colon) [µM] | TGI (RPMI-8226 leukemia) [µM] | TGI (SR leukemia) [µM] | TGI (K-562 leukemia) [µM] | TGI (RXF 393 renal) [µM] | TGI (UO-31 renal) [µM] | TGI (MCF7 breast) [µM] | TGI (MDA-MB-231 breast) [µM] |
| --- | --- | --- | --- | --- | --- | --- | --- | --- | --- | --- |
| CC(C)(C)OC(=O)NC(Cc1ccccc1)C(=O)NC(Cc1ccccc1)C(=O)NCC(=O)OCc1ccccc1 (stereo not drawn) (Boc-Phe-Phe-Gly-OBn; configuration not given here) | 31.6 | 29.4 | 40.4 | 39.6 | 44.6 | 31.4 |  | > 100 | > 100 |  |
| CC(=O)OC1[C@H]2c3cc4c(cc3CN3CCC(=C[C@@H]1O)C23)OCO4 (some centres not stated) | > 100 | > 100 | > 100 | > 100 | > 100 | > 100 | > 100 | > 100 |  |  |
| CCOC(=O)C(CS)NC(=O)CCCCCCCC(=O)NC(CS)C(=O)OCC (configuration not stated) | > 100 |  | > 100 | > 100 | > 100 | > 100 |  | > 100 | > 100 | > 100 |
| Cc1c(NC2(C)C(=O)N(/N=C/c3ccccc3)N=C2c2ccccc2)n[nH]c1-c1ccccc1 (configuration not stated) | > 100 | > 100 | > 100 | > 100 |  | > 100 | > 100 | > 100 | > 100 | > 100 |
| S=C(S)NCC1CCC(CNC(=S)S)CC1 (configuration not stated) | 18.6 | > 100 | 42.3 | > 100 |  | > 100 | 40.6 | 47.5 | 81.3 | 70.1 |
| CC(=O)O[C@H]1C(=O)[C@@]2(C)[C@H]([C@H](OC(=O)c3ccccc3)[C@]3(O)C[C@H](OC(=O)[C@H](O)[C@@H](NC(=O)CC(C)(C)C)c4ccccc4)C(C)=C1C3(C)C)C1(OC(C)=O)CO[C@@H]1C[C@@H]2O (some centres not stated) | > 10 | > 6.19 | 0.0133 |  |  | > 10 | 0.148 | > 10 | > 10 | > 10 |
| COc1cc(S(=O)(=O)Nc2ccc(-c3csc(N4C(=O)CSC4c4ccccc4)n3)cc2)ccc1Cl (configuration not stated) | > 100 | > 100 | > 100 | 89.3 | > 100 | > 100 | 64.5 | > 100 | 87.4 |  |
| c1ccc2c(Cc3nnc4sc(SSc5nn6c(Cc7c[nH]c8ccccc78)nnc6s5)nn34)c[nH]c2c1 | 47.6 | 67.2 | 44.4 |  | 41.7 | 46.5 | 50.9 | 46.7 | 46.4 |  |
| O=c1[nH]c2cc3[nH]c4ncccc4c(=O)c3cc2[nH]1 | > 10 | > 10 | > 10 | > 10 | > 10 |  | > 10 |  |  | > 10 |
| Cn1cnc2c(sc3nc4ccccc4n32)c1=N | > 100 | > 100 | > 100 | > 100 |  |  | > 100 | > 100 | > 100 | > 100 |
| CN(C)CCCOCCn1c2c(c3ccccc31)CCCC2 | 28.9 | > 100 | 28.5 | 33.9 | 41 | 58.5 |  | 36.9 | 31.5 | 26.6 |
| N#CC(NNC(=O)c1ccccc1O)c1cccc(O)c1 (configuration not stated) | > 100 | > 100 | > 100 | > 100 | > 100 | > 100 | 85.3 | 5.63 |  |  |
| Cc1sc2ccccc2[n+]1CCC(=O)O | > 100 | > 100 | > 100 | > 100 |  | > 100 | > 100 |  | > 100 | > 100 |
| Cc1ccc(S(=O)(=O)c2c(O)c3ccccc3n(C)c2=O)cc1 | > 100 | > 100 | > 100 | > 100 |  | > 100 | > 100 | > 100 | > 100 | > 100 |
| CC(C)OP(=O)(OC(C)C)C(C(C)C)N(C)/C(F)=N/C(F)(F)F (configuration not stated) | > 100 | > 100 | > 100 |  |  | > 100 | > 100 | > 100 | > 100 | > 100 |
| CC(=O)Oc1ccc(C2COc3cc(OC(C)=O)c(OC(C)=O)cc3C2)cc1 (configuration not stated) |  | 51.6 | > 81.5 | 58.8 |  | 51.7 | 23.8 | 59.4 | 35.2 |  |
| CSc1c(C#N)c2n(c3ccccc13)c1ccccc1[n+]2C | > 100 | > 100 | 46.2 | 85.6 | > 100 |  |  | 64.9 | > 100 | 60.1 |
